Reference: US11230550
Where two headings read alike, the source gives them in different places.

Conditions: rcm bond, Grubbs I, CH2Cl2, 40.0 °C

| Structure (SMILES) | ring closure, yield of all isomers (from C=CCCCCN(C[C@@H](O)[C@H](Cc1ccccc1)NC(=O)OC(C)(C)C)S(=O)(=O)c1ccc([N+](=O)[O-])cc1COCC=C, 1.625 mM, 3.0 h) [%] | ring closure, yield of all isomers (from C=CCCCCN(C[C@@H](O)[C@H](Cc1ccccc1)NC(=O)OC(C)(C)C)S(=O)(=O)c1ccc(OC)cc1COCC=C, 2.65 mM, 4.0 h) [%] |
| --- | --- | --- |
| CC(C)(C)OC(=O)N[C@@H](Cc1ccccc1)[C@H](O)CN1CCCCC=CCOCc2cc([N+](=O)[O-])ccc2S1(=O)=O | 92 | – |
| COc1ccc2c(c1)COCC=CCCCCN(C[C@@H](O)[C@H](Cc1ccccc1)NC(=O)OC(C)(C)C)S2(=O)=O | – | 93 |
